Structures are written as SMILES. Where “and” joins values, the source holds several entries; their conditions need not be identical. Equal entries are not always repeated.

From PubChem BioAssay AID1963842 (Molecular Pharmacology Branch, DTP, NCI, 2024) come the findings set out here.

In this experiment the test system is 677734-321-R-J1-PDC complex spheroid viability. The experiment in a line: Anticancer human tumor 677734-321-R-J1-PDC patient-derived soft tissue sarcoma cell line growth inhibition [POLQ]. The note with it: for viability, T/C: stronger effect = lower value. How it is done:
Multicellular complex tumor spheroid response to Polymerase (POL) inhibitors (novobiocin, ART-558, RP6685) in combination with a variety of drugs and investigational agents in selected tumor cell lines
The POL inhibitors (novobiocin, ART-558, and RP6685) were evaluated both individually and in combination with standard of care and investigational anticancer small molecules within a complex spheroid model of solid tumors. . Complex spheroids include a stromal component modeled by human endothelial cells (HUVEC) and fibroblasts modeled by human mesenchymal stem cells (MSCs). The concentration ranges selected for each drug and investigational agent were based upon clinically achievable concentrations if the clinical Cmax of the agent was known.
Compounds. The drugs and investigational agents: novobiocin (NSC847541), ART-558 (NSC835418), RP-6685 (NSC848927), peposertib (NSC802822), ceralasertib (NSC780249), elimusertib (NSC800525), camonsertib (NSC841442), AZD-1390 (NSC803789), olaparib (NSC753686), talazoparib (NSC767125), rucaparib (NSC756644), sotorasib (NSC818433), MRTX-1133 (NSC836407), SN-38 (NSC673596), topotecan (NSC609699), epotoside (NSC141540), doxorubicin (NSC123127), gemcitabine (NSC613327), 5-fluorouracil (NSC19893), paclitaxel (NSC125973), vemurafenib (NSC761431), MSA-2 (NSC828583), SN-011 (NSC837082), adavosertib (NSC754352), prexasertib (NSC758257), carboplatin (NSC241240) and oxaliplatin (NSC266046), were obtained from the National Cancer Institute (NCI) Developmental Therapeutics Program Chemical Repository (21). The FDA-approved anticancer drug set is available from the Developmental Therapeutics Program at https://dtp.cancer.gov/organization/dscb/obtaining/. […] The stock solutions were prepared in dimethyl sulfoxide (DMSO, Sigma-Aldrich, St. Louis, MO, cat. D2650), except for the platinum compounds which were prepared in saline (Quality Biological, Gaithersburg, MD, cat. 114-055-101), at 800-fold the tested concentration and stored at -70 degrees C prior to their use. All drugs and investigational agents were tested over a range starting from a high concentration at or near the clinical Cmax and decreasing in half-log increments. If the clinical Cmax for an agent had not been determined, the highest concentration tested was 10 microM, except for SN-38, which was tested at a high concentration of 1 microM.
Cell Culture. All cells were maintained in an incubator at 37 degrees C and 5% CO2 with 95% humidity. The PDC lines were cultured according to standard operating procedures established by the NCI PDMR (https://pdmr.cancer.gov). Table 3 of the manuscript, lists the cell lines along with the number of the three cell types plated to form the mct-spheroids and media for tumor cell growth. After thawing, all PDC lines, except 997537-175-T-J1-PDC and 415267-285-R-J2-PDC, were cultured in Matrigel-coated flasks prepared with a working solution of 1X Ham's F-12 nutrient mix, without supplementation (Thermo Fisher Scientific, cat. 11765054), 100 U/mL penicillin-streptomycin (Thermo Fisher Scientific, cat. 15140122), and 2.5% Matrigel (Corning Inc., Corning, NY, cat. 354248) for the first three passages. The two PDC lines 997537-175-T-J1-PDC and 415267-285-R-J2-PDC were cultured on uncoated flasks. The 857933-349-R-J2-PDC line was cultured in 6C/Colon 1B media containing advanced DMEM/F-12 (Thermo Fisher Scientific, cat. 12634028), 10 mM HEPES (Thermo Fisher Scientific, cat. 15630080), 1X GlutaMAX supplement (Thermo Fisher Scientific, cat. 35050061), 0.1 mg/mL primocin (InvivoGen, San Diego, CA, cat. ant-pm-2), 10% defined fetal bovine serum, heat inactivated (HyClone Laboratories Inc., Logan, UT, cat. SH30070.03HI), 50% L-WRN conditioned media (ATCC, cat. CRL-3276), 1.25 mM N-Acetyl-L-cysteine (Sigma-Aldrich, cat. A9165), 10 mM nicotinamide (Sigma-Aldrich, cat. N0636), 1X B-27 supplement (Thermo Fisher Scientific, cat. 17504044), 1X N-2 supplement (Thermo Fisher Scientific, cat. […]
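Note: spheroids exposed to compounds for one week.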

One may read the IC50 as the concentration needed to halve the response being measured. As a reminder, the viability, T/C is the result in the treated group divided by that in the control group, in per cent. As for `CC(=O)O[C@H]1C(=O)[C@@]2(C)[C@H]([C@H](OC(=O)c3ccccc3)[C@]3(O)C[C@H](OC(=O)[C@H](O)[C@@H](NC(=O)c4ccccc4)c4ccccc4)C(C)=C1C3(C)C)[C@]1(OC(C)=O)CO[C@@H]1C[C@@H]2O` + COC1C(OC(N)=O)C(O)C(Oc2ccc3c(O)c(NC(=O)c4ccc(O)c(CC=C(C)C)c4)c(=O)oc3c2C)OC1(C)C, the IC50 is less than 9.49 nM (curve of first compound, second compound 0.0316 µM); less than 9.49 nM (curve of first compound, second compound 0.1 µM); less than 9.49 nM (curve of first compound, second compound 0.316 µM); less than 9.49 nM (curve of first compound, second compound 1 µM); less than 9.49 nM (curve of first compound, second compound 3.16 µM); less than 9.49 nM (curve of first compound, second compound 10 µM). Also, the viability, T/C (second compound 0.0316 µM, first compound 0.00949 µM) was 44.6%; the viability, T/C (second compound 0.0316 µM, first compound 0.03 µM) was 22.1%; the viability, T/C (second compound 0.0316 µM, first compound 0.0949 µM) was 16.2%; the viability, T/C (second compound 0.0316 µM, first compound 0.3 µM) is 16.4%; the viability, T/C (second compound 0.0316 µM, first compound 0.949 µM) is 13.5%; the viability, T/C (second compound 0.0316 µM, first compound 3 µM) was 19.1%. The viability, T/C runs as follows: (second compound 0.1 µM, first compound 0.00949 µM) 41.2%; (second compound 0.1 µM, first compound 0.03 µM) 23.5%; (second compound 0.1 µM, first compound 0.0949 µM) 20.2%; (second compound 0.1 µM, first compound 0.3 µM) 14.9%; (second compound 0.1 µM, first compound 0.949 µM) 13.6%; (second compound 0.1 µM, first compound 3 µM) 17.5%. In addition, the viability, T/C was 36.8% (second compound 0.316 µM, first compound 0.00949 µM); 21.3% (second compound 0.316 µM, first compound 0.03 µM); 16.8% (second compound 0.316 µM, first compound 0.0949 µM); 11.9% (second compound 0.316 µM, first compound 0.3 µM); 13.9% (second compound 0.316 µM, first compound 0.949 µM); 16.9% (second compound 0.316 µM, first compound 3 µM). Moreover, the viability, T/C was 37.8% (second compound 1 µM, first compound 0.00949 µM); 22.4% (second compound 1 µM, first compound 0.03 µM); 17.8% (second compound 1 µM, first compound 0.0949 µM); 15.2% (second compound 1 µM, first compound 0.3 µM); 14% (second compound 1 µM, first compound 0.949 µM); 18% (second compound 1 µM, first compound 3 µM). For the same molecule, the viability, T/C is 37.8% (second compound 3.16 µM, first compound 0.00949 µM); 21.1% (second compound 3.16 µM, first compound 0.03 µM); 16.2% (second compound 3.16 µM, first compound 0.0949 µM); 15.4% (second compound 3.16 µM, first compound 0.3 µM); 13.5% (second compound 3.16 µM, first compound 0.949 µM); 17.7% (second compound 3.16 µM, first compound 3 µM). Moreover, the viability, T/C (second compound 10 µM, first compound 0.00949 µM) is 45.5%; the viability, T/C (second compound 10 µM, first compound 0.03 µM) was 23.1%; the viability, T/C (second compound 10 µM, first compound 0.0949 µM) was 16.2%; the viability, T/C (second compound 10 µM, first compound 0.3 µM) is 13.2%; the viability, T/C (second compound 10 µM, first compound 0.949 µM) was 14.3%; the viability, T/C (second compound 10 µM, first compound 3 µM) is 16.5%.
Take `CC1COCCN1c1cc(-c2ccnn2C)c2ccnc(-c3ccn[nH]3)c2n1` (stereo not given): the viability, T/C is, setting by setting: (compound 0.0316 µM) 91.4% and 85.5% and 69.4%; (compound 0.1 µM) 60.5% and 56.2% and 22.1%; (compound 1 µM) 24.4% and 21.4% and 10.8%; (compound 3.16 µM) 19.7% and 6.39% and 9.44%; (compound 10 µM) 18.5% and 17.1% and 9.19%. In addition, the IC50 (curve of compound) was 164 nM and 124 nM and 50.6 nM.
Turning to `COc1cccc(OCCCN)c1-c1cc(Nc2cnc(C#N)cn2)n[nH]1`, the viability, T/C runs as follows: (compound 0.00316 µM) 96.4% and 60.4% and 103%; (compound 0.01 µM) 35.5% and 11.5% and 11.2%; (compound 0.0316 µM) 13.8% and 5.42% and 7.19%; (compound 0.1 µM) 8.96% and 5.9% and 8.69%; (compound 0.316 µM) 11% and 6.62% and 7.27%; (compound 1 µM) 10.3% and 5.14% and 6.13%. Also, the IC50 (curve of compound) is 7.61 nM and 4.04 nM and 6.15 nM.
